Literature values in patent US9555003B2, “Oral solid formulation of compound anti-tubercular drug and preparation method thereof” (priority 2011, dated 2017).
In brackets after ≈: the same amount, converted by molar mass.

Columns and labels:
[1] = not given; remark: listed apart in the source

Compound	solubility in water	Vd ([1]; in vivo) [L/kg]	protein binding rate ([1]; in vivo)	oral absorption rate ([1]; oral) [%]	time to peak serum drug concentration after administration ([1]; oral) [h]	solubility in ethanol	solubility in ethyl ether	intra-cellular concentration for inhibiting tubercle bacillus relative to extracellular concentration (tubercle bacillus; folds lower than the extracellular concentration) [folds]	concentration at which tubercle bacillus is eliminated (tubercle bacillus; tubercle bacillus) [µg/mL]	minimum inhibitory concentration (tubercle bacillus; tubercle bacillus) [µg/mL]
CC[C@H](CO)NCCN[C@H](CC)CO.Cl.Cl [Ethambutol hydrochloride]	easily soluble									
NNC(=O)c1ccncc1 [Isoniazid, 4-pyridylcarbonylhydrazine]	easily soluble	0.61 ± 0.11	very low	90	1 to 2	slightly soluble	very slightly soluble			
NC(=O)c1cnccn1 [Pyrazinamide]	slightly soluble					slightly soluble	very slightly soluble	10	50	12.5 (≈ 102 µM)
CO[C@H]1/C=C/O[C@@]2(C)Oc3c(C)c(O)c4c(O)c(c(/C=N/N5CCN(C)CC5)c(O)c4c3C2=O)NC(=O)/C(C)=C\C=C\[C@H](C)[C@H](O)[C@@H](C)[C@@H](O)[C@@H](C)[C@H](OC(C)=O)[C@@H]1C [Rifampicin]	poorly soluble									
